The text below walks through data of patent US20090069300A1, “ISOQUINOLINYL AND ISOINDOLINYL DERIVATIVES AS HISTAMINE-3 ANTAGONISTS” (Wyeth, priority 2007, published 2009).

Structures can show the parent of a compound that is named as a salt. A value given as a limit tells only on which side of the number the result lay.

The target of the first test is T1, Human Histamine H3 Receptor (Homo sapiens, UniProt Q9Y5N1).
T1 construct: expressed in transfected cells; host or cells: HEK293T (stably transfected; membranes prepared from the cells)
T1 sequence (Q9Y5N1 whole entry): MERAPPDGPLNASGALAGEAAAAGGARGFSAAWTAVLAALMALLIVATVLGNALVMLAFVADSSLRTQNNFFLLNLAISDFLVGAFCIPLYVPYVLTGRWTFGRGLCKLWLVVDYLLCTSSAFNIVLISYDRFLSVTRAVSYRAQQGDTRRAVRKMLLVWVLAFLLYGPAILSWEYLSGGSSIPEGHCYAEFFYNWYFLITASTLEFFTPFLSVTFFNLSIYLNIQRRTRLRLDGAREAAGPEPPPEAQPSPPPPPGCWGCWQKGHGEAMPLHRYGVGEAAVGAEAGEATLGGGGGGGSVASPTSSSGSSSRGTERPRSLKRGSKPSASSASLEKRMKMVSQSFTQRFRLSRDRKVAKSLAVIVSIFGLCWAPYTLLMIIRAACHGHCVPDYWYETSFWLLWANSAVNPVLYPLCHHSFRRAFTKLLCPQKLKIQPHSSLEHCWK
The test is described as follows: Methyl histamine binding in human histamine H3 receptor cell line.
Details: not given
Here is the method: Evaluation of Methyl Histamine Binding in Human Histamine H3 Receptor Cell Line
The affinity of test compounds for the histamine 3 (H3) receptor is evaluated in the following manner. […] Cells are scraped from the plate, transferred to centrifuge tubes, washed one time in PBS by centrifugation in a Sorvall RT7 Plus centrifuge (2000 rpm 10 minutes, 4° C.). The resulting pellets are stored at −80° C. until ready for use. Cells are re-suspended in buffer (50 mM Tris pH=7.5) and placed in a Dounce homogenizer, douncing ten times to homogenize cells. The homogenate is spun down by centrifugation (Sorvall RT7 Plus, 1800 rpm 10 minutes, 4° C.). The supernatant is placed in a Corex tube and spun down by centrifugation (Sorvall RC 5c Plus, 17,000 rpm 20 minutes, 4° C.). The pellet is resuspended in buffer (50 mM Tris, pH 7.5). Protein concentration (ug/ul) is determined using the Micro-BCA Protein Determination. The binding assay is set up in a 96 well microtiter plate in a total volume of 250 uL. Non-specific binding is determined in the presence of 10 uM clobenpropit. The final radioligand concentration is 1 nM. The test compound is serially diluted using the Beckman Biomek2000 to a final approximate range of 100 uM to 100 pM. Membranes are suspended in buffer, homogenized in 2 bursts of ten seconds using a Vitris mechanical homogenizer set at power setting 5. Ten μg of membranes are added to each well. Following a one hour incubation at 30° C., the reaction is terminated by the addition of ice cold buffer and rapid filtration with a Packard Filtermate Harvester through a GF/B filter pre-soaked with 1% PEI for one hour. The plate is dried for one hour at 37° C. and 60 μL Microscint Scintillant is added to each well. The CPM per well is measured on a Packard Top Count NXT. Ki values are determined in nM. […] CPM values are expressed as % specific binding and plotted vs compound concentration. A curve is fitted using a four-parameter logistic fit and the IC50 value is determined. The Ki is calculated from this using the Cheng-Prusoff equation: […]=IC50/1+(L/Kd) where L=concentration of free radioligand used in the assay, and Kd is the dissociation constant of the radioligand for the receptor. L is determined for each experiment by counting an aliquot of the diluted radioligand (corresponding to that added to each well) and the Kd has previously been determined under identical conditions for this cell line/radioligand.
In the case of `O=C(NCCCl)c1ccc(-c2ccc3c(c2)CCN(CCN2CCCC2)C3=O)cc1` [Example 123, N-(2-chloroethyl)-4-[1-oxo-2-(2-pyrrolidin-1-ylethyl)-1,2,3,4-tetrahydroisoquinolin-6-yl]benzamide], the Ki (as a rule, a dissociation constant, usually derived from enzyme kinetics or from competition with a known ligand) was below 10 nM.

The test is the same for the next values; noted with them: read-out: H3 Binding Ki.
Turning to `CC(C)NC(=O)c1ccc(-c2ccc3c(c2)CCN(CCN2CCC[C@H]2C)C3=O)cc1` [Example 77, N-isopropyl-4-(2-{2-[(2R)-2-methylpyrrolidin-1-yl]ethyl}-1-oxo-1,2,3,4-tetrahydroisoquinolin-6-yl)benzamide], the Ki was below 10 nM.
Regarding `CNC(=O)c1ccc(-c2ccc3c(c2)CCN(CCN2CCC[C@H]2C)C3=O)cc1` [Example 78, N-methyl-4-(2-{2-[(2R)-2-methylpyrrolidin-1-yl]ethyl}-1-oxo-1,2,3,4-tetrahydroisoquinolin-6-yl)benzamide], the Ki is below 10 nM.
`O=C(c1ccc(-c2ccc3c(c2)CCN(CCN2CCCC2)C3=O)cc1)N1CCCCC1` [Example 79, 6-[4-(piperidin-1-ylcarbonyl)phenyl]-2-(2-pyrrolidin-1-ylethyl)-3,4-dihydroisoquinolin-1(2H)-one]: the Ki was below 10 nM.
The same measure, in the same setting: for `C[C@@H]1CCCN1CCN1CCc2cc(-c3ccc(C(=O)NC4CCCC4)cc3)ccc2C1=O` [Example 80, N-cyclopentyl-4-(2-{2-[(2R)-2-methylpyrrolidin-1-yl]ethyl}-1-oxo-1,2,3,4-tetrahydroisoquinolin-6-yl)benzamide] the value was below 10 nM.
Turning to `C[C@H]1CCCN1C(=O)c1ccc(-c2ccc3c(c2)CCN(CCN2CCCC2)C3=O)cc1` [Example 81, 6-(4-{[(2S)-2-methylpyrrolidin-1-yl]carbonyl}phenyl)-2-(2-pyrrolidin-1-ylethyl)-3,4-dihydroisoquinolin-1(2H)-one], the Ki was below 10 nM.
As to `C[C@@H]1CCCN1C(=O)c1ccc(-c2ccc3c(c2)CCN(CCN2CCCC2)C3=O)cc1` [Example 82, 6-(4-{[(2R)-2-methylpyrrolidin-1-yl]carbonyl}phenyl)-2-(2-pyrrolidin-1-ylethyl)-3,4-dihydroisoquinolin-1(2H)-one], the Ki was below 10 nM.
Still for that read-out and setting: for `CNC(=O)c1ccc(-c2ccc3c(c2)C(=O)N(CCN2CCC[C@H]2C)CC3)cc1` [Example 83, N-methyl-4-(2-{2-[(2R)-2-methylpyrrolidin-1-yl]ethyl}-1-oxo-1,2,3,4-tetrahydroiso-quinolin-7-yl)benzamide] the value was below 10 nM; for `CCNC(=O)c1ccc(-c2ccc3c(c2)C(=O)N(CCN2CCC[C@H]2C)CC3)cc1` [Example 84, N-ethyl-4-(2-{2-[(2R)-2-methylpyrrolidin-1-yl]ethyl}-1-oxo-1,2,3,4-tetrahydroiso-quinolin-7-yl)benzamide], below 10 nM.
Still for that read-out and setting: next, `CC(C)NC(=O)c1ccc(-c2ccc3c(c2)C(=O)N(CCN2CCC[C@H]2C)CC3)cc1` [Example 85, N-isopropyl-4-(2-{2-[(2R)-2-methylpyrrolidin-1-yl]ethyl}-1-oxo-1,2,3,4-tetrahydroiso-quinolin-7-yl)benzamide]: below 10 nM; `C[C@@H]1CCCN1CCN1CCc2ccc(-c3ccc(C(=O)N4CCCC4)cc3)cc2C1=O` [Example 86, 2-{2-[(2R)-2-methylpyrrolidin-1-yl]ethyl}-7-[4-(pyrrolidin-1-ylcarbonyl)phenyl]-3,4-dihydroisoquinolin-1(2H)-one]: below 10 nM; `NC(=O)c1ccc(Oc2ccc3c(c2)CCN(CCN2CCCC2)C3=O)cc1` [Example 91, 4-{[1-oxo-2-(2-pyrrolidin-1-ylethyl)-1,2,3,4-tetrahydroisoquinolin-6-yl]oxy}benzamide]: 10.1 to 25 nM.
Consider `CN(C)C(=O)c1ccc(Oc2ccc3c(c2)CCN(CCN2CCCC2)C3=O)cc1` [Example 95, N,N-dimethyl-4-{[1-oxo-2-(2-pyrrolidin-1-ylethyl)-1,2,3,4-tetrahydroisoquinolin-6-yl]oxy}benzamide], for which the Ki lay in the range of 25.1 to 50 nM.
For the compound `CCN(CC)C(=O)c1ccc(Oc2ccc3c(c2)CCN(CCN2CCCC2)C3=O)cc1` [Example 96, N,N-diethyl-4-{[1-oxo-2-(2-pyrrolidin-1-ylethyl)-1,2,3,4-tetrahydroisoquinolin-6-yl]oxy}benzamide], the Ki fell in the range of 25.1 to 50 nM.
For the compound `O=C(c1ccc(Oc2ccc3c(c2)CCN(CCN2CCCC2)C3=O)cc1)N1CCCC1` [Example 98, 6-[4-(pyrrolidin-1-ylcarbonyl)phenoxy]-2-(2-pyrrolidin-1-ylethyl)-3,4-dihydroiso-quinolin-1(2H)-one], the Ki is below 10 nM.
Turning to `CNC(=O)c1ccc(Oc2ccc3c(c2)CCN(CCN2CCCC2)C3=O)nc1` [Example 101, N-Methyl-6-(1-oxo-2-(2-(pyrrolidin-1-yl)ethyl)-1,2,3,4-tetrahydro-isoquinolin-6-yloxy)nicotinamide hydrochloride], the Ki lay in the range of 25.1 to 50 nM.
Turning to `CON(C)C(=O)c1ccc(-c2ccc3c(c2)CCN(CCN2CCCC2)C3=O)cc1` [Example 102, N-methoxy-N-methyl-4-(1-oxo-2-(2-(pyrrolidin-1-yl)ethyl)-1,2,3,4-tetrahydroisoqui-nolin-6-yl)benzamide], the Ki was below 10 nM.
The same measure, in the same setting: for `O=C1c2ccc(-n3cnc4ccccc43)cc2CCN1CCN1CCCC1` [Example 108, 6-(1H-benzimidazol-1-yl)-2-(2-pyrrolidin-1-ylethyl)-3,4-dihydroisoquinolin-1(2H)-one Fumarate Salt] the value was below 10 nM; for `O=C1c2ccc(Cn3cnc4ccccc43)cc2CN1CCN1CCCC1` [Example 112, 5-(1H-benzimidazol-1-ylmethyl)-2-(2-pyrrolidin-1-ylethyl)iso-indolin-1-one], 25.1 to 50 nM.
Still for that read-out and setting: next, `CNC(=O)c1ccc(-c2ccc3c(c2)CN(CCN2CCC[C@H]2C)C3=O)cc1` [Example 118, N-methyl-4-(2-{2-[(2R)-2-methylpyrrolidin-1-yl]ethyl}-1-oxo-2,3-dihydro-1H-isoindol-5-yl)benzamide]: 50.1 to 100 nM; `C[C@@H]1CCCN1CCN1CCc2cc(OCc3ccc(C#N)cc3)ccc2C1=O` [Example 120, (R)-4-((2-(2-(2-Methylpyrrolidin-1-yl)ethyl)-1-oxo-1,2,3,4-tetra-hydroisoquinolin-6-yloxy)methyl)benzonitrile hydrochloride]: below 10 nM; `O=C(NCc1cccs1)c1ccc(-c2ccc3c(c2)CCN(CCN2CCCC2)C3=O)cc1` [Example 121, 4-[1-oxo-2-(2-pyrrolidin-1-ylethyl)-1,2,3,4-tetrahydroisoquinolin-6-yl]-N-(2-thienylmethyl)benzamide]: below 10 nM.
Turning to `O=C(c1ccc(-c2ccc3c(c2)CCN(CCN2CCCC2)C3=O)cc1)N1CCOCC1` [Example 122, 6-[4-(morpholin-4-ylcarbonyl)phenyl]-2-(2-pyrrolidin-1-ylethyl)-3,4-dihydroisoquinolin-1(2H)-one], the Ki was below 10 nM.
On to `CCN(C)C(=O)c1ccc(-c2ccc3c(c2)CCN(CCN2CCCC2)C3=O)cc1` [Example 124, N-ethyl-N-methyl-4-[1-oxo-2-(2-pyrrolidin-1-ylethyl)-1,2,3,4-tetrahydroisoquinolin-6-yl]benzamide], for which the Ki was below 10 nM.
Consider `O=C(NCc1ccco1)c1ccc(-c2ccc3c(c2)CCN(CCN2CCCC2)C3=O)cc1` [Example 125, N-(2-furylmethyl)-4-[1-oxo-2-(2-pyrrolidin-1-ylethyl)-1,2,3,4-tetrahydroisoquinolin-6-yl]benzamide], for which the Ki is below 10 nM.
